From patent US20250114324A1, “ANTIMICROBIAL MATERIALS AND NANOPARTICLES AND METHODS OF USE THEREOF” (Arizona Board of Regents on behalf of Arizona State …, priority 2022, published 2025)
Like-named read-outs stand apart in the source and are kept apart here. One block for each compound: values may come before it.

What was measured:
[1] = pH>7; cited from earlier work
[2] = cited from earlier work
[3] = after drinking 2 cups of green tea; cited from earlier work
[4] = after drinking tea containing catechins at 10 mg/kg body weight; cited from earlier work
[5] = Stability of nano-encapsulated and native EGCG in 1×PBS at pH 7.4; format: physicochemical; conditions: neutral pH (7.4)
Protocol: Three independent experiments were conducted at each time point.
The degradation rate of EGCG in NLCs and CSNLCs were much slower.
(§1) The chemical stability is measured by detecting remaining phytochemicals' concentrations at different time points using the HPLC system. The release profile is measured using a dialysis method. Briefly, native phytochemicals and NCs are each put into dialysis bags with Molecular Weight Cut Off (MWCO) 6,000-8,000. The dialysis bags are dipped into the dissolution medium composed of 1×PBS and methanol (9:1, v:v). The dissolution medium is stirred at 200 rpm at 4° C. and 22° C. The dissolution medium is changed completely every 2 hours for the first 24 hours, and every 6 hours for the rest 30 days. The amounts of phytochemicals in the release medium are measured using the above HPLC methods.

[6] = Pharmacokinetics and bioavailability of Q after oral administration to rats; conditions: male, Sprague-Dawley, rat, 50 mg/kg
Protocol: Male Sprague-Dawley rats (n=3 per group) weighing 200-250 g were purchased pre-cannulated from Harlan Laboratories (Indianapolis, IN). The rounded tips catheters were surgically implanted into the jugular vein of the rats with the benefits of multiple blood draw. […] Blood was collected via the catheters at hour 0, 1, 2, 3, 4, 6, 8, 10, 14, 24, 36, and 48 into heparinized tubes. Blood Q concentrations were measured using a HPLC system (FIG. 5). Pharmacokinetic parameters were determined on each individual set of data by using a non-compartmental model (Song I, Eur J Clin Pharmacol. 2016; 72:665-670). […] The relative bioavailability Fr at infinity was calculated as Fr=AUCQ-NLC, […]/AUCQ, 0→∞. The half-life (t1/2)=0.693/k. The mean residence time (MRT)=1/k.
Male Sprague-Dawley rats (n=3 per group) weighing 200-250 g and the rounded tips catheters were surgically implanted into the jugular vein of the rats with the benefits of multiple blood draw. […] Blood was collected via the catheters at hour 0, 1, 2, 3, 4, 6, 8, 10, 14, 24, 36, and 48 into heparinized tubes. Blood Q concentrations were measured using an HPLC system (FIG. 21). Pharmacokinetic parameters were determined on each individual set of data by using a non-compartmental model. […] The area under the plasma concentration time curve from time zero to infinity (AUC0→∞) was calculated as AUC0→24 h+Ct/Ke, where Ct was the Q concentration observed at the […] time, and Ke is the apparent elimination rate constant obtained from the terminal slope of the individual plasma concentration-time curves after logarithmic transformation of the plasma concentration values and application of linear regression. The relative bioavailability Fr at infinity was calculated as Fr=AUCQ-NP, 0→∞/AUCQ, 0→∞. The half-life (t1/2)=0.693/k. The mean residence time (MRT)=1/k.

E coli (ATCC 43895) = test: Antibacterial activity (absorbance at 595 nm), Example 3; format: cell-based; conditions: 300 μg/mL R or Q; free RQ 240 μg/mL (FIG. 19B)
Source text: (§2) The antibacterial activity of all NPs and their controls against Salmonella enterica subsp. enterica (S. enterica ATCC 13076), Listeria monocytogenes (L. monocytogenes ATCC 15313), E coli (ATCC 43895) and Staphylococcus aureus subsp. aureus (S. aureus ATCC 25923) were investigated.

[7] = room temperature; cited from earlier work
[8] = In vitro release profile (dialysis method); format: physicochemical; conditions: for release profile: 37° C. (FIG. 17C)
Protocol: as §1
Using R-NPs as an example, the NPs were stable at both 4° C. and 22° C. (FIG. 17A). Nanoencapsulation increased R's stability (FIG. 17B). Similarly, Q and RQ were also stable at 4° C. and 22° C. after encapsulation. A dialysis method was used to measure R and Q release profiles from NPs at 37° C. […] The release profiles of NPs were even slower at 4° C. and 22° C.

[9] = system: L. monocytogenes ATCC 15313; test: Antibacterial activity (absorbance at 595 nm), Example 3; format: cell-based, Listeria monocytogenes; conditions: 300 μg/mL R or Q; free RQ 240 μg/mL (FIG. 19C)
Source text: as §2

[10] = system: S. enteritidis (13076), L. monocytogenes (15313), E. coli (48953) and S. aureus (25923); test: Anti-bacterial assay, Example 2, result stated for the four strains together; format: cell-based; set-up: anti-bacterial effects: dose or concentration left out as unconfirmed
Protocol: The concentrations of R and Q in the NPs were characterized by HPLC. Three parallel experiments were performed for each sample, the absorbance of bacteria solution treated with different samples was measured by a microplate reader at a wavelength of 600 nm. S. enteritidis (13076), L. monocytogenes (15313), E. coli (48953) and S. aureus (25923) were used in this study and treated with R-NPs, Q-NPs, RQ-NPs, and CS-coated R-NPs, Q-NPs, and RQ-NPs, respectively. Different concentrations of R-NPs and Q-NPs were investigated. Initially, 50 μg/mL R and R-NPs were used. […] S. enteritidis, L. monocytogenes, E. coli and S. aureus were cultured in broth media under constant shaking at 100 rpm at 37° C. to reach the mid exponential growth phase. The number of bacteria was determined by counting the CFU formed on the agar plate. Bacterial suspensions were diluted to approximately 1×10^4-5 CFU/mL in broth media. The NPs solution (20 μL) was mixed with 180 μL of bacterial suspension in a 96-well plate, and the experiments were performed in triplicates. […]

S. aureus (25923) = test: Anti-bacterial assay (OD 600 nm, CFU), Example 2; format: cell-based; conditions: 100 μg/mL, 24 h of incubation
Protocol: (§3) The concentrations of R and Q in the NPs were characterized by HPLC. Three parallel experiments were performed for each sample, the absorbance of bacteria solution treated with different samples was measured by a microplate reader at a wavelength of 600 nm. S. enteritidis (13076), L. monocytogenes (15313), E. coli (48953) and S. aureus (25923) were used in this study and treated with R-NPs, Q-NPs, RQ-NPs, and CS-coated R-NPs, Q-NPs, and RQ-NPs, respectively. Different concentrations of R-NPs and Q-NPs were investigated. Initially, 50 μg/mL R and R-NPs were used. […] S. enteritidis, L. monocytogenes, E. coli and S. aureus were cultured in broth media under constant shaking at 100 rpm at 37° C. to reach the mid exponential growth phase. The number of bacteria was determined by counting the CFU formed on the agar plate. Bacterial suspensions were diluted to approximately 1×10^4-5 CFU/mL in broth media. The NPs solution (20 μL) was mixed with 180 μL of bacterial suspension in a 96-well plate, and the experiments were performed in triplicates. The plates were incubated at 37° C. under constant shaking at 100 rpm overnight, and the optical density (OD) at 600 nm was measured on a plate reader.

S. enteritidis (13076) = test: Anti-bacterial assay (OD 600 nm, CFU), Example 2; format: cell-based; conditions: 100 μg/mL, 24 h of incubation
Protocol: as §3

E. coli (48953) = test: Anti-bacterial assay (OD 600 nm, CFU), Example 2; format: cell-based; conditions: 100 μg/mL, 24 h of incubation
Protocol: as §3

L. monocytogenes (15313) = test: Anti-bacterial assay (OD 600 nm, CFU), Example 2; format: cell-based; conditions: 100 μg/mL, 24 h of incubation
Protocol: as §3

Structure (SMILES): COc1cc(/C=C/C(=O)CC(=O)/C=C/c2ccc(O)c(OC)c2)ccc1O [curcumin, Curcumin]
half-life [1]: < 0.167 h
solubility in water [2]: less than 0.1 mg/mL

time to complete degradation ([5]; 4° C.): 24 h
time to complete degradation ([5]; 25° C.): 6 h
time to complete degradation ([5]; 37° C.): 3 h
Structure (SMILES): O=C(O[C@@H]1Cc2c(O)cc(O)cc2O[C@@H]1c1cc(O)c(O)c(O)c1)c1cc(O)c(O)c(O)c1 [EGCG, Epigallocatechin Gallate]
peak plasma EGCG concentration [3]: 0.15 UM
absolute oral bioavailability [4]: about 0.1%

Structure (SMILES): O=c1c(O)c(-c2ccc(O)c(O)c2)oc2cc(O)cc(O)c12 [Q]
half-life ([6]; in vivo): 16.7 ± 10.5 h
Cmax ([6]; po): 964 ± 536 ng/mL
Ke ([6]; po): 0.07 ± 0.06 h⁻¹
MRT ([6]; po): 12.1 ± 15.1 h
Tmax ([6]; po): 2 h
AUC ([6]; po, AUCo→24 h): 14600 ± 6270 ng·h/mL
AUC ([6]; po, AUCo→∞): 15300 ± 6090 ng·h/mL
growth inhibition (E coli (ATCC 43895)): inhibited growth
dissolution of 20 mg in 10 mL of 1×PBS [7]: not able to be dissolved
release profile ([8]; dialysis method): burst release
release pattern ([8]; dialysis method, release medium (FIG. 4B)): burst release pattern
growth inhibition [9]: inhibited growth

Structure (SMILES): Oc1ccc(/C=C/c2cc(O)cc(O)c2)cc1 [R, 3,5,4′-tri-hydroxy-trans-stilbene]
anti-bacterial effects ([10]; 6 h of incubation): significant anti-bacterial effects
anti-bacterial effects of 300 μg/mL compared with 200 μg/mL ([10]; FIG. 9): significant enhanced anti-bacterial effects
growth inhibition (E coli (ATCC 43895)): inhibited growth
anti-bacterial effects (S. aureus (25923)): showed anti-bacterial effects
growth (CFU formation) (S. aureus (25923)): significantly decreased the growth
growth (CFU formation) (S. enteritidis (13076)): still not shown
anti-bacterial effects (E. coli (48953)): showed anti-bacterial effects
growth (CFU formation) (E. coli (48953)): significantly decreased the growth
growth (CFU formation) (L. monocytogenes (15313)): still not shown
aqueous solubility [2]: < 100 µg/mL
release behavior ([8]; RES NPs study): burst release
release profile ([8]; dialysis method): burst release
growth inhibition [9]: inhibited growth
